Laboratory results as given in patent publication US20260174875A1 (Novo Nordisk A/S, priority 2023, published 2026).
Like-named read-outs stand apart in the source and are kept apart here. Numbered stars: 1 amine (or outer) side, 2 acyl side, 3 side chain; on linkers, the order of the positions; unused ones are H or OH. Square brackets hold non-standard residues; d marks the D form. Side chains are listed from the residue outwards. * marks the point of attachment. C20 diacid = O=C(O)CCCCCCCCCCCCCCCCCCC(=O)*; C18 diacid = O=C(O)CCCCCCCCCCCCCCCCC(=O)*; C16 diacid = O=C(O)CCCCCCCCCCCCCCC(=O)*; γGlu = O=C(O)[C@H](CCC(=O)[*:2])N[*:1]; AEEA = NCCOCCOCC(=O)O; Aib = CC(C)(N)C(=O)O

Experiments:
[1] = Pharmacokinetic study in minipigs (i.v.); assay type: in vivo, Göttingen minipigs; settings: female, Göttingen, minipig, plasma, iv; i.v. administration to minipigs, 2 nmol/kg; read-out: Terminal half-life t1/2 (converted)
Protocol: This is done in a pharmacokinetic (PK) study, where the terminal half-life (t1/2) of the compound or derivative in question is determined. By terminal half-life is meant the time it takes to halve a certain plasma concentration in the terminal elimination phase.
Female Göttingen minipigs, obtained from Ellegaard Göttingen Minipigs (Dalmose, Denmark), approximately 8-12 months of age and weighing approximately 20-30 kg were used in the studies.
After three weeks of acclimatisation two permanent central venous catheters were implanted in vena cava caudalis in each animal. The animals were allowed at least 10 days recovery after the surgery and were then used for repeated pharmacokinetic studies with a suitable wash-out period between successive dosing.
The compounds of the invention were formulated (40 nmol/ml) in the following vehicle: 8 mM phosphate; 250 mM glycerol; 0.007% polysorbate 20, pH 7.4.
Blood samples (for example 1.3 ml) were collected in EDTA (1.3 ml tube containing K3EDTA to yield 1.6 mg K3EDTA/ml blood) coated tubes and then centrifuged at 4° C. and 2000×g for 10 minutes.
Plasma was within 30 min after centrifugation pipetted into Micronic tubes stored on dry ice and were afterwards kept at −20° C. until analysed for plasma concentration of the compounds using LCMS.
Plasma concentrations of the peptides of the invention were assayed by plasma protein precipitation and analysed by liquid chromatography mass spectrometry (LC-MS). Calibrators were prepared by spiking blank plasma from minipigs with the compounds in the typical range from 0.05 to 200 nM. […] The supernatant was diluted with 1 volumes of Milli-Q water containing 1% Formic acid before injection on the LC-MS system. Individual plasma concentration-time profiles were analysed by a non-compartmental pharmacokinetic method (NCA) in Phoenix v. 6.4 (Pharsight Inc., Mountain View, CA, USA), and the resulting terminal half-lives (harmonic mean) determined. The LC-MS analysis was carried out using a TurboFlow HPLC system from Thermo Fisher Scientific (Bremen, Germany) coupled to either a Q Exactive Orbitrap or Altis Triple Quadrupole (TQ) Mass Spectrometer. […] The Orbitrap mass spectrometer were operating in positive ionization mode with a spray voltage of 4.0 kV using Parallel Reaction Monitoring scan mode using 5 m/z isolation windows on the most abundant charge state of the compounds with a resolution of 35K on the Orbitrap MS.
The data was processed using the Quan Browser in the Xcalibur software from Thermo Fisher Scientific (Bremen, Germany) by fitted the data to linear calibration curves (weighed 1/x^2), used for calculating the concentration in the plasma samples. Quality control samples were included.

[2] = target: T1, human amylin receptor (hAMYR3) (Homo sapiens, UniProt O60896+P30988); experiment: Amylin receptor assay, method B (CRE-luciferase reporter, BHK cells); assay type: cell-based
T1 construct: host or cells: BHK cells (Hollex-1 line expressing hCTR(a) and CRE-Luc), further transfected with human RAMP3
T1 sequence (P30988 25-474): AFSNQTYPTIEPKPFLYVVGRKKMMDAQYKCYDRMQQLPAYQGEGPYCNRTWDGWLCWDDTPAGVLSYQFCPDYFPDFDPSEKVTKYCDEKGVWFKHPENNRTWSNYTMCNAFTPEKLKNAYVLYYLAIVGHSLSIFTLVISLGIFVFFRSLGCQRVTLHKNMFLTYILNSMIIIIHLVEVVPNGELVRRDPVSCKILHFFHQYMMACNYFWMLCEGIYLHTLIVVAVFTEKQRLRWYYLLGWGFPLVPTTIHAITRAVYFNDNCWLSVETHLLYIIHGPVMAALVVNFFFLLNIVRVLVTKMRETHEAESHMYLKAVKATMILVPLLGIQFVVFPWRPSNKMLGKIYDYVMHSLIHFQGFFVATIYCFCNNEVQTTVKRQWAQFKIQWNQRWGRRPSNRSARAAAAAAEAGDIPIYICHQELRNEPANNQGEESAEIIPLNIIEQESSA
T1 sequence (O60896 24-148): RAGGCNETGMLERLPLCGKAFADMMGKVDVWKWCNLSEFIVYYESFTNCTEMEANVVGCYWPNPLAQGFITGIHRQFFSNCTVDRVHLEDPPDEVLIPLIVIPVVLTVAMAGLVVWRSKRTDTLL
Method in brief: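 BHK cells with CRE-luciferase, co-expressing hAMYR3 and transfected with human RAMP3, seeded overnight, then exposed 3 h at 37 °C to compound. Buffer: phenol red-free DMEM, 10 mM HEPES, 1% ovalbumin, with 0% or 1% (w/v) HSA. Luminescence read after 30 min with steadylite Plus.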

[3] = target: T2, human GIP receptor (hGIPR) (Homo sapiens, UniProt P48546); experiment: GIP receptor assay, method B (CRE-luciferase reporter, BHK cells, 384-well); assay type: cell-based
T2 construct: expressed in transfected cells
T2 sequence (P48546 22-466): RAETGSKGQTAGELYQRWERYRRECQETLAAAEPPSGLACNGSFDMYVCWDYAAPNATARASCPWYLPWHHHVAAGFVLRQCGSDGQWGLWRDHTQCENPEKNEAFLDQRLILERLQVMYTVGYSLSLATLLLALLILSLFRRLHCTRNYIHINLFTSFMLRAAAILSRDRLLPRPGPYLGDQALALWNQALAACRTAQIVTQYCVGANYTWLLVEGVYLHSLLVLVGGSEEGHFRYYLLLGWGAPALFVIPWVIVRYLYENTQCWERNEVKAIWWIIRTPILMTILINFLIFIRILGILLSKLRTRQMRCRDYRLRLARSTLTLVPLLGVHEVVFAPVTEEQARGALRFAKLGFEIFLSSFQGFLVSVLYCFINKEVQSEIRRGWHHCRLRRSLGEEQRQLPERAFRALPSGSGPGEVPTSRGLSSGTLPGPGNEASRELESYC
Protocol: (§1) To assess how the activation of the receptors is potentially influenced by the presence of human serum albumin (HSA), the in vitro assays were performed in the absence of HSA and presence of 1% (w/v) HSA.
Activation of the human GIP receptor leads to increased intra-cellular concentrations of cyclic AMP (cAMP) and the consequent transcription activation from promoters containing multiple copies of the cAMP response element (CRE). It is thus possible to measure GIP receptor activity using a CRE-luciferase reporter gene introduced into Baby Hamster Kidney (BHK) cells co-expressing the human GIP receptor.
Cells at about 80-90% confluency were washed once with PBS (Gibco 14190-094) and detached from the cell flasks with Versene (Gibco, 15040-066). After centrifugation, the cells were counted, resuspended and diluted to approximately 1.5-3.0×10^6 (1.5E+6 to 3.0E+6) cells/mL in Recovery Cell Culture Freezing Medium (Gibco, 12648-010) and stored at −180° C. in suitable aliquots until use.
(§2) The assay buffer consisted of DMEM without phenol red (Gibco, 11880-028) supplemented with 1× GlutaMAX (Gibco, 35050-038), 10 mM HEPES (Gibco, 15630-056), 1% (w/v) ovalbumin (Sigma, A5503) and 0.1% (v/v) Pluronic F-68 (Gibco, 24040-032) either with HSA or without HSA (Sigma, A9511).
Serial dilutions were transferred to a 384-well assay plate (PerkinElmer/Revvity, 6007688) and mixed with an equal volume (10 μL) of assay buffer without or with 3% HSA (Sigma, A-9511). Frozen stocks of hGIPR BHK Cre-Luc cells were thawed in a 37° C. water bath, washed once in PBS (Gibco 14190-094), diluted to 1.5×10^5 (1.5E+5) cells/mL in assay buffer (without HSA) and added (10 μL) to each well of the 384-well assay plate. After a short centrifugation, the assay plates were incubated for 3 hours at 37° C. in 5% CO2 and let to equilibrated at room temperature for 10 minutes before the addition of 30 μL steadylite Plus™ (PerkinElmer/Revvity, 6066759) per well. Plates were sealed and incubated at room temperature with gentle shaking for 30 minutes while protected from light. Luminescence was detected on a luminescence plate reader e.g. a Synergy 2 (BioTek).

[4] = target: T3, human GLP-1 receptor (hGLP-1R) (Homo sapiens, UniProt P43220); experiment: GLP-1 receptor assay, method B (CRE-luciferase reporter, BHK cells, 384-well); assay type: cell-based
T3 construct: expressed in transfected cells
T3 sequence (P43220 24-463): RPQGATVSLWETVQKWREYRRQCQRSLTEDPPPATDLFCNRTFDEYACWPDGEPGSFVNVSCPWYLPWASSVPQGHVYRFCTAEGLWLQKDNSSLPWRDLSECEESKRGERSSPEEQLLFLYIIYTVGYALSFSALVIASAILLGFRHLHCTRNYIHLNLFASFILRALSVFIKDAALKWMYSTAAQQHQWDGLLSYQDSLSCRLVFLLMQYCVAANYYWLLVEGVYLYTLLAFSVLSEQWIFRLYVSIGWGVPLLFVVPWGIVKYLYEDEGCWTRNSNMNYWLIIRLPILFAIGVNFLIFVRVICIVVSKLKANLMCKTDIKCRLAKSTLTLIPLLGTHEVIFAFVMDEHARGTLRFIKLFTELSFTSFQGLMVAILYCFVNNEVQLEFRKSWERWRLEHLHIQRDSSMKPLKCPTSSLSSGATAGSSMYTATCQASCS
Protocol: as §1
Cells at approximately 80-90% confluence were washed once in PBS (Gibco 14190-094) and loosened from the cell flasks with Versene (Gibco, 15040-033). […] Cells were aliquoted and stored at −180° C. until use.
as §2
Serial dilutions were transferred to a 384-well assay plate (PerkinElmer/Revvity, 6007688) and mixed with an equal volume (10 μL) of assay buffer without or with 3% (w/v) HSA (Sigma, A-9511). Frozen stocks of hGLP-1R BHK Cre-Luc cells were thawed in a 37° C. water bath, washed once in PBS (Gibco 14190-094), diluted to 1.5×10^5 (1.5E+5) cells/mL in assay buffer (without HSA) and added (10 μL) to each well of the 384-well assay plate. After a short centrifugation, the assay plates were incubated for 3 hours at 37° C. in 5% CO2 and let to equilibrated at room temperature for 10 minutes before the addition of 30 μL steadylite Plus™ PerkinElmer/Revvity, 6066759) per well. Plates were sealed and incubated at room temperature with gentle shaking for 30 minutes while protected from light. Luminescence was detected on a luminescence plate reader e.g. a Synergy 2 (BioTek).

Row | half-life [1] | Substance | also measured
1 | 120 h | Y[Aib]EGTFTSDYSILLEEQAAREFIEWLLAGGPSSGAGQAPGQAPGASHLSTAQTQRLSAELHK([AEEA-AEEA-γGlu-C18 diacid])LATLPRTETGSGSP-NH2 [compound 52] | –
2 | 117 h | H[Aib]HGTFTSDYSILLEEQAAREFIEWLLAGGPSK([AEEA-AEEA-γGlu-C18 diacid])GEASQLSTAALGRLSAELHQLATLPRTETGSGSP-NH2 [Compound 64] | –
3 | 115 h | Y[Aib]EGTFTSDYSILLEEQAAREFIEWLLAGGPSSGAGQAPGQAPGASHLSTAQTQRLSAELHK([AEEA-AEEA-γGlu-C20 diacid])LATLPRTETGSGSP-NH2 [Compound 115] | EC50 ([2]; hAMYR3 Potency, 1% HSA, EC50, methods B, in the presence of 1% HSA): 551 pM; EC50 ([2]; method B, absence of HSA, read-out: hAMYR3 Potency, no HSA, EC50): 7.13 pM; EC50 ([3]; hGIPR Potency, 1% HSA, EC50, methods B, in the presence of 1% HSA): 38.9 pM; EC50 ([3]; method B, absence of HSA, read-out: hGIPR Potency, no HSA, EC50): 10.3 pM; EC50 ([4]; hGLP-1R Potency, 1% HSA, EC50, methods B, in the presence of 1% HSA): 92.9 pM; EC50 ([4]; method B, absence of HSA, read-out: hGLP-1R Potency, no HSA, EC50): 19.4 pM
4 | 90 h | Y[Aib]EGTFTSDYSILLEEQAAREFIEWLLAGGPSSGAGQAPGQAPGASHLSTAQTQRLSAELHRLATLPK([AEEA-AEEA-γGlu-C18 diacid])TETGSGSP-NH2 [Compound 57] | –
5 | 81 h | H[Aib]HGTFTSDYSILLEEQAAREFIEWLLAGGPSK([AEEA-AEEA-γGlu-C16 diacid])GAPPPSGGGEASELSTAALGRLSAELHELATLPRTETGSGSP-NH2 [Compound 12] | –
6 | 97 h | Y[Aib]EGTFTSDYSILLEEQAAREFIEWLLAGGPSSGAGQAPGQAPLASHLSTAQTQRLSAELHK([AEEA-AEEA-γGlu-C18 diacid])LATLPRTETGSGSP-NH2 [compound 58] | –
7 | 125 h | Y[Aib]EGTFTSDYSILLEEQAAREFIEWLLAGGPSRGEASHLSTAQTQRLSAELHK([AEEA-AEEA-γGlu-C18 diacid])LATLPRTETGSGSP-NH2 [compound 68] | –
8 | 43 h | H[Aib]HGTFTSDYSILLEEQAAREFIEWLLAGGPSSGAGQAPGQAPGASHLSTAQTQRLSAELHRLK([AEEA-AEEA-γGlu-C18 diacid])TLPRTETGSGSP-NH2 [Compound 91] | –
9 | 138 h | H[Aib]HGTFTSDYSILLEEQAAREFIEWLLAGGPSK([AEEA-AEEA-γGlu-C20 diacid])GAPPPSGGGEASELSTAALGRLSAELHELATLPRTETGSGSP-NH2 [Compound 16] | –
10 | 69 h | H[Aib]HGTFTSDYSILLEEQAAREFIEWLLAGGPSSGAGQAPGQAPLASHLSTAQTQRLSAELHK([AEEA-AEEA-γGlu-C18 diacid])LATLPRTETGSGSP-NH2 [Compound 93] | –
11 | 122 h | H[Aib]HGTFTSDYSILLEEQAAREFIEWLLAGGPSK([AEEA-AEEA-γGlu-C18 diacid])GAPPPSGGGEASELSTAALGRLSAELHELATLPRTETGSGSP-NH2 [Compound 15] | –
12 | 88 h | Y[Aib]EGTFTSDYSILLEEQAAREFIEWLLAGGPSSGAGQAPGQAPGASHLSTAQTQRLSAK([AEEA-AEEA-γGlu-C18 diacid])LHRLATLPRTETGSGSP-NH2 [compound 55] | –
13 | 119 h | Y[Aib]EGTFTSDYSILLEEQAAREFIEWLLAGGPSK([AEEA-AEEA-γGlu-C16 diacid])GEASELSTAALGRLSAELHELATLPRTETGSGSP-NH2 [Compound 11] | –
14 | 122 h | H[Aib]HGTFTSDYSILLEEQAAREFIEWLLAGGPSK([AEEA-AEEA-γGlu-C18 diacid])GAPPPSGGGEASHLSTAQTARLSAELHQLATLPRTETGSGSP-NH2 [compound 101] | –

Row | Substance | half-life [1] | also measured
15 | H[Aib]HGTFTSDYSILLEEQAAREFIEWLLAGGPSK([AEEA-AEEA-γGlu-C16 diacid])GAPPPSGGGEASHLSTAQTARLSAELHRLADLPRTETGSGSP-NH2 [Compound 61] | 61 h | –
